Read-outs that look alike come from different tables or passages of the source.
Columns and labels:
[1] = tested on: bone marrow cells; conditions: in vivo
[2] = tested on: Blood-loss Anemia Model; assay: Blood-loss anemia model, rats; conditions: for Blood hemochrome content / GPC (blood granulophilocyte) / RBC: n=10;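 for all read-outs here: male Wistar rats made anemic by repeated orbital bloodletting, kept on iron-low diet with deionized water while dosed, compared against untreated anemic model and normal-diet control groups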
Procedure: Ferrous gluconate, the positive control drug, yellow-green powder and 11% ferrous content, was purchased from Ganjian Pharmaceutical Company of Jianxi Province. Ferrous fumarate, 6.4% ferrous content, was purchased from the 18th Pharmaceutical Company of Shanghai. All drugs were diluted by distilled water.
7 groups were prepared as hemolytic anemia groups and one group was taken as normal control group supplemented with normal diet and water. The hemolytic anemia model was prepared by subjecting rats to inner canthus bloodletting of right eye through capillary glass tube. The first bloodletting content was 2.0 ml for each rat and in that time the range of hemochrome for rats was from 9.78 to 10.65 g %. Two days later, the second bloodletting (2 ml/rat) was carried out with the hemochrome values of 7.40-7.88 g %. The total bloodletting volume for each rat was 4 ml and was 32.9% in volume of the whole blood circulating the body.
While one hemolytic anemia group and one normal control group were taken as reference groups compared with other groups left. These two groups' rats were killed and the blood parameters were recorded. Other six groups now were randomly divided into three treatment groups of ferrous L-threonate with high, middle and low dosages respectively, two positive drugs control groups of ferrous gluconate and ferrous fumarate and one model group. At the end of 12 days and 18 days experimental periods, 5 and 10 rats of each group were killed correspondingly. During the course of experiment, the variations of hemochrome content were examined with 6 days interval.
While Element ferrous content 8.64 mg/kg as ferrous gluconate or ferrous fumarate was for positive drug control group. The groups for blood-loss anemia were provided iron-low diet and deionized water during the period of the administration of drugs, while the normal animal control group was provided normal diet and deionized water.

[3] = tested on: Hemolytic Anemia Model; assay: Hemolytic anemia model (acetylphenylhydrazine), rats; assay type: in vivo, male Wistar rats
Procedure: 1. […] All drugs were diluted by distilled water.
2. […] Animal diet also was purchased from Beijing Medical University.
(1) Hemolytic Anemia Model: Hemolytic anemia model was prepared for rats by injecting reagent of acetylphenylhydrazine (C8 H10 N2 O, produced by Beijing Biochemical Company) subcutaneously. The drug acetyphenylhydrazine was mixed with physiological saline to get its injection solution of 4% by weight of acetyphenylhydrazine. The solution was injected subcutaneously into each rat with a dosage of 57 μg/g at the beginning of the experiments. The content of blood hemochrome for each rat was examined at 2 days and 4 days later, respectively. When the mean blood hemochrome decreased to about 6.11±0.25 g %, rats were randomly divided into 6 groups of 18 rats each. […] The forth groups was positive drug control groups. The fifth group and the sixth group were designed as model group and normal control group, respectively.

[4] = tested on: rat
[5] = tested on: mice testicle cells; conditions: mouse, in vivo
[6] = rat, in vivo, po, 72 h
Procedure: Its chemical formula is Fe(C4 H7 O5)2.2H2 O, molecular weight:362.
Animals: Male Wistar rats were supplied by Experimental Animal Center, Tumor Institute of Heilongjian Province with body weight of 140 g-180 g. The iron-low diet contains iron 0.9 mg/kg.
50 rats were randomly divided into 5 groups of [19] 10 rats each. On this basis of administration of iron-low diet, each group of rats was administered respectively by gavage according to the dosage below:
High dosage group: Fe, 5 mg/kg, ferrous L-threonate, 32.32 mg/kg;
Middle dosage group: Fe, 2.5 mg/kg, ferrous L-threonate, 16.16 mg/kg;
Low dosage group: Fe, 1.0 mg/kg, ferrous L-threonate, 6.46 mg/kg;
Positive drug control group (ferrous sulfate): Fe, 2.5 mg/kg, ferrous sulfate, 12.43 mg/kg;
Negative drug control group (iron-low diet): Fe, 0.9 mg/kg (measured value).
After the end of 7 days feeding normal diet period, rats were supplemented with iron-low diet prepared according to AOAC formula for another 7 days. The 1-3 groups were treatment groups and supplemented with ferrous L-threonate 32.32 mg/kg (5 mgFe/kg, high dose group), 16.16 mg/kg (2.5 mg Fe/kg, middle dose group) and 6.46 mg/kg (1.0 mg Fe/kg, low dose group), respectively. The forth, positive drug control group, was provided with ferrous sulfate 12.43 mg/kg (2.5 mg Fe/kg). The fifth was model control group and was offered with iron-low diet (0.9 mg Fe/kg). Each groups were arranged to take drug one time by I.G (gavage) method per day and in the same time were supplemented with deionized water.
The test was sustained three days. Each rat's excrement was collected, dried at temperature 80-90° C., weighed and ground into 40-60 meshes. About 0.5 to 0.6 gram sample was taken and a mixture of nitric acid and perchloric acid at a ratio of 4:1 was added therein until completion of digestion. The constant volume is 10 ml. The iron content of excrement was determined by atomic absorption method and the iron absorptive rate for each rat can be calculated by the formula listed below. [formula]

[7] = in vivo, po
[8] = water
[9] = 8.64 mg Fe/kg (middle dosage / positive controls), 12 days
[10] = 8.64 mg Fe/kg (middle dosage / positive controls), 18 days
[11] = high dosage, 17.28 mg Fe/kg, 12 days
[12] = high dosage, 17.28 mg Fe/kg, 18 days
[13] = low dosage, 4.32 mg Fe/kg, 12 days
[14] = low dosage, 4.32 mg Fe/kg, 18 days
[15] = 8.64 mg Fe/kg (middle dosage / positive control)

ferrous L-threonate
micronucleus test result [1]: negative | Blood hemochrome content ([2]; 8.64 mg Fe/kg (middle dosage / positive controls), 6 days after treatment): 8.35 ± 0.21 | Blood hemochrome content ([2]; 8.64 mg Fe/kg (middle dosage / positive controls), 12 days after treatment): 10.67 ± 0.37 | GPC (blood granulophilocyte) [2, 9]: 12.58% | RBC [2, 9]: 4.81e+12 L⁻¹ | Blood hemochrome content ([2]; 8.64 mg Fe/kg (middle dosage / positive controls), 18 days after treatment): 12.14 ± 0.27 | GPC (blood granulophilocyte) [2, 10]: 8.44% | RBC [2, 10]: 5.21e+12 L⁻¹ | Blood hemochrome content ([2]; 8.64 mg Fe/kg (middle dosage / positive controls), before treatment): 7.40 ± 0.54 | Blood hemochrome content ([2]; high dosage, 17.28 mg Fe/kg, 6 days after treatment): 8.70 ± 0.43 | Blood hemochrome content ([2]; high dosage, 17.28 mg Fe/kg, 12 days after treatment): 11.01 ± 0.34 | GPC (blood granulophilocyte) [2, 11]: 10.04% | RBC [2, 11]: 5.67e+12 L⁻¹ | Blood hemochrome content ([2]; high dosage, 17.28 mg Fe/kg, 18 days after treatment): 12.40 | GPC (blood granulophilocyte) [2, 12]: 7.84% | RBC [2, 12]: 5.84e+12 L⁻¹ | Blood hemochrome content ([2]; high dosage, 17.28 mg Fe/kg, before treatment): 7.88 ± 0.28 | Blood hemochrome content ([2]; low dosage, 4.32 mg Fe/kg, 6 days after treatment): 8.00 ± 0.42 | Blood hemochrome content ([2]; low dosage, 4.32 mg Fe/kg, 12 days after treatment): 10.20 ± 0.49 | GPC (blood granulophilocyte) [2, 13]: 13.12% | RBC [2, 13]: 4.242e+12 L⁻¹ | Blood hemochrome content ([2]; low dosage, 4.32 mg Fe/kg, 18 days after treatment): 11.26 ± 0.79 | GPC (blood granulophilocyte) [2, 14]: 8.91% | RBC [2, 14]: 4.76e+12 L⁻¹ | Blood hemochrome content ([2]; low dosage, 4.32 mg Fe/kg, before treatment): 7.61 ± 0.53 | effect on treating IDA compared with both ferrous gluconate and ferrous fumarate ([2]; same ferrous dosage): better effects on treating IDA compared with both ferrous gluconate and ferrous fumarate | improvement and cure of anemia compared with ferrous gluconate and ferrous fumarate ([2]; summary statement covering hemolytic anemia, blood-loss anemia and nutritional IDA): can significantly improve and cure hemolytic anemia, blood-loss anemia and nutritional IDA | Iron content of whole blood [3, 15]: 301.89 ± 19.500 µg/mL | Serum ferritin (SF) [3, 15]: 23.54 ± 2.50 ng/mL | hemoglobin content ([3]; 8.64 mg Fe/kg (middle dosage / positive control), after anemia (before treatment)): 5.87 g % | hemoglobin content ([3]; 8.64 mg Fe/kg (middle dosage / positive control), before anemia (baseline)): 15.01 g % | hemoglobin content ([3]; 8.64 mg Fe/kg (middle dosage / positive control), one week after treatment): 11.11 g % | hemoglobin content ([3]; 8.64 mg Fe/kg (middle dosage / positive control), two weeks after treatment): 14.04 g % | whole blood iron and serum ferritin compared with ferrous gluconate group ([3]; groups except low dosage group): more considerably better than those of ferrous gluconate group | Iron content of whole blood ([3]; high dosage, 17.28 mg Fe/kg): 326.95 ± 26.956 µg/mL | Serum ferritin (SF) ([3]; high dosage, 17.28 mg Fe/kg): 24.05 ± 1.74 ng/mL | hemoglobin content ([3]; high dosage, 17.28 mg Fe/kg, after anemia (before treatment)): 6.18 g % | hemoglobin content ([3]; high dosage, 17.28 mg Fe/kg, before anemia (baseline)): 14.9 g % | hemoglobin content ([3]; high dosage, 17.28 mg Fe/kg, one week after treatment): 11.95 g % | hemoglobin content ([3]; high dosage, 17.28 mg Fe/kg, two weeks after treatment): 14.34 g % | Iron content of whole blood ([3]; low dosage, 4.32 mg Fe/kg): 283.53 ± 23.051 µg/mL | Serum ferritin (SF) ([3]; low dosage, 4.32 mg Fe/kg): 19.38 ± 1.57 ng/mL | hemoglobin content ([3]; low dosage, 4.32 mg Fe/kg, after anemia (before treatment)): 5.94 g % | hemoglobin content ([3]; low dosage, 4.32 mg Fe/kg, before anemia (baseline)): 14.89 g % | hemoglobin content ([3]; low dosage, 4.32 mg Fe/kg, one week after treatment): 9.95 g % | hemoglobin content ([3]; low dosage, 4.32 mg Fe/kg, two weeks after treatment): 12.57 g % | action on treating anemia compared with ferrous gluconate ([3]; same dosage of iron, 8.64 mg/kg): considerably better than ferrous gluconate | toxicity grade ([4]; acute toxicity, rat): belongs to the grade of very lower | LD50 ([4]; female rat): 3160 mg/kg | LD50 ([4]; male rat): 3690 mg/kg | safety in use ([4]; rat, in vivo): used safely and without toxicity | chromosome aberration test result [5]: negative | Absorptivity ([6]; 1 mg/kg): 59.10 ± 5.01% | Absorptivity ([6]; 2.5 mg/kg): 54.90 ± 4.08% | Absorptivity ([6]; 5 mg/kg): 42.60 ± 1.79% | embryonic toxicity and aberration [7]: did not produce embryonic toxicity and abberation | solubility [8]: soluble in water

Source: patent publication US6313170A, “L-threonate ferrous, as well as pharmaceutical composition and use for improving and treating human anemia thereof” (priority 1997, dated 2001)
